# Measured values published in patent US20030215840A1, “Methods and compositions for treating cardiovascular disease using 1682, 6169, 6193, 7771, 14395, 29002, 33216, 43726, 69292, 26156, 32427, 2402, 7747, 1720, 9151, 60491, 1371, 7077, 33207, 1419, 18036, 16105, 38650, 14245, 58848, 1870, 25856, 32394, 3484, 345, 9252, 9135, 10532, 18610, 8165, 2448, …” (Millennium Pharmaceuticals, Inc., priority 2002, published 2003).
# B1: interferon gamma: interferon gamma used to stimulate monocytes and macrophages (protein, UniProt P01579 24-161, looked up)
# Interferon gamma: QDPYVKEAENLKKYFNAGHSDVADNGTLFLGILKNWKEESDRKIMQSQIVSFYFKLFKNFKDDQSIQKSVETIKEDMNVKFFNSNKKKRDDFEKLTNYSVTDLNVQRKAIHELIQVMAELSPAAKTGKRKRSQMLFRG
# B2: CD40 ligand: CD40 ligand used to stimulate macrophages (protein, UniProt P29965 113-261, looked up)
# CD40 ligand, soluble form: MQKGDQNPQIAAHVISEASSKTTSVLQWAEKGYYTMSNNLVTLENGKQLTVKRQGLYYIYAQVTFCSNREASSQAPFIASLCLKSPGRFERILLRAANTHSSAKPCGQQSIHLGGVFELQPGASVFVNVTDPSQVSHGTGFTSFGLLKL
# Key:
# 17799 mRNA = details: niacin marmoset models
# Description: (§1) This example describes the TaqMan™ procedure. The Taqman™ procedure is a quantitative, reverse transcription PCR-based approach for detecting mRNA. The RT-PCR reaction exploits the 5′ nuclease activity of AmpliTaq Gold™ DNA Polymerase to cleave a TaqMan™ probe during PCR. Briefly, cDNA was generated from the samples of interest, e.g., heart, kidney, liver, skeletal muscle, and various vessels, and used as the starting material for PCR amplification. In addition to the 5′ and 3′ gene-specific primers, a gene-specific oligonucleotide probe (complementary to the region being amplified) was included in the reaction (i.e., the Taqman™ probe). […]
# (§2) During the PCR reaction, cleavage of the probe separates the reporter dye and the quencher dye, resulting in increased fluorescence of the reporter. Accumulation of PCR products is detected directly by monitoring the increase in fluorescence of the reporter dye. When the probe is intact, the proximity of the reporter dye to the quencher dye results in suppression of the reporter fluorescence. […]
# 32135 mRNA = details: niacin models
# Description: as §1, §2
# 6169 mRNA = assay: TaqMan analysis of 6169 mRNA in an African Green Monkey model of atherosclerosis; type: in vivo
# Procedure: (§3) This example describes the TaqMan™ procedure. […] The TaqMan™ probe includes the oligonucleotide with a fluorescent reporter dye covalently linked to the 5′ end of the probe (such as FAM (6-carboxyfluorescein), TET (6-carboxy-4,7,2′,7′-tetrachlorofluorescein), JOE (6-carboxy-4,5-dichloro-2,7-dimethoxyfluorescein), or VIC) and a quencher dye (TAMRA (6-carboxy-N,N,N′,N′-tetramethylrhodamine) at the 3′ end of the probe.
# (§4) RNA was prepared using the trizol method and treated with DNase to remove contaminating genomic DNA. cDNA was synthesized using standard techniques.
# 29002 mRNA [1] = assay: TaqMan analysis of 29002 mRNA in stimulated endothelial cells; type: cell-based
# Procedure: as §3, §4
# 21833 mRNA = assay: TaqMan analysis of 21833 in cultured human monocytes and macrophages; type: cell-based; details: after stimulation
# Procedure: as §3, §4
# 29002 mRNA [2] = assay: TaqMan analysis of 29002 mRNA in stimulated macrophages; type: cell-based
# Procedure: as §3, §4
molecule,measurement,setting,value
O=C(O)c1cccnc1 [niacin],17799 mRNA expression,17799 mRNA,repressed
same,32135 mRNA expression,32135 mRNA,repressed
n-3 polyunsaturated fatty acid,6169 mRNA expression,6169 mRNA,repressed
"CC[C@H](C)C(=O)O[C@H]1CCC=C2C=C[C@H](C)[C@H](CC[C@@H]3C[C@@H](O)CC(=O)O3)[C@H]21 [mevastatin, reference compound]",29002 mRNA expression,29002 mRNA [1],down-regulated
B1,21833 expression,21833 mRNA,upregulated
B2,29002 mRNA expression,29002 mRNA [2],upregulated
same,21833 expression,21833 mRNA,upregulated
